The nature of series [1]: Single dose oral pharmacokinetic study. The conditions noted are these: mouse, mice, 30 mg/kg, plasma; for AUC(0-t): read-out: Mice oral PK @30 mg/kg AUC 0-t; for Cmax: read-out: Mice oral PK @30 mg/kg Cmax. It counts as in vivo. As to the method: The test item was administered through oral route to animals (rat/mice) at 30 mg/kg dose in a suitable vehicle at 10 ml/kg dose volume. Blood samples (˜50 uL at each time point) were collected from retro-orbital plexus using K3 EDTA as anticoagulant in eppend; orf tubes at defined time intervals under light ether anesthesia. The samples were centrifuged at 3500×g to separate plasma and stored at −80° C. until analysis.
Sample analysis: Test samples were analyzed using LC-MS-MS after developing fit-for-purpose method for each of test compound.

The test system of series [2] is HIV-1 strains, for e.g., 92HT599. In words: Antiviral activity: p24 estimation in MT-2 cells infected with HIV-1. It counts as cell-based. Particulars: Human immunodeficiency virus 1, MT2, MT-2 cells infected with HIV-1, p24, ~96 hours; for IC50: read-out: Antiviral activity IC50 (nM) Efficacy IC50. As to the method: MT-2 cells were infected with required number of TCID50's of HIV-1 strains, for e.g., 92HT599. The infected cells were plated at the concentration of 30, 000 cells per well in a 96 well plate. Test compound was added to the 96 well plate with the final concentration of DMSO (vehicle—not more than 1%). The plates are then incubated in a CO2 incubator for ˜96 hours (˜4 days) for viral infection. At the end of incubation period an aliquot from each well was taken for p24 estimation. The quantitation of p24 is an estimated index for antiviral activity of the compound. Percent inhibition was calculated with reference to control values (vehicle controls).
p-24 estimation was carried out using Advance biosciences kit as per the procedure detailed by supplier.

Each structure is given as a SMILES string.

Turning to `C=C(C)[C@@H]1CC[C@]2(C(=O)N3CCC[C@H]3c3ncc(-c4ccccn4)[nH]3)CC[C@]3(C)[C@H](CC[C@@H]4[C@@]5(C)CC[C@H](OC(=O)[C@H]6C[C@@H](C(=O)O)C6(C)C)C(C)(C)[C@@H]5CC[C@]43C)[C@@H]12` [Compound 1, (1R,3S)-2,2-dimethyl-3-((((1R,3aS,5aR,5bR,7aR,9S,11aR,11bR,13aR,13bR)-5a,5b,8,8,11a-pentamethyl-1-(prop-1-en-2-yl)-3a-((S)-2-(5-(pyridin-2-yl)-1H-imidazol-2-yl)pyrrolidine-1-carbonyl)icosahydro-1H-cyclopenta[a]chrysen-9-yl)oxy)carbonyl)cyclobutane-1-carboxylic acid], in series [1], the AUC(0-t) came out at 177 µg·h/mL and the Cmax amounted to 6.29 µg/mL. For the same compound, the IC50 in series [2] is 8.06 nM.
For the compound `C=C(C)[C@@H]1CC[C@]2(C(=O)N3CCC[C@H]3c3ncc(-c4cccc(F)c4)[nH]3)CC[C@]3(C)[C@H](CC[C@@H]4[C@@]5(C)CC[C@H](OC(=O)[C@H]6C[C@@H](C(=O)O)C6(C)C)C(C)(C)[C@@H]5CC[C@]43C)[C@@H]12` [Compound 4, (1R,3S)-3-((((1R,3aS,5aR,5bR,7aR,9S,11aR,11bR,13aR,13bR)-3a-((S)-2-(5-(3-fluorophenyl)-1H-imidazol-2-yl)pyrrolidine-1-carbonyl)-5a,5b,8,8,11a-pentamethyl-1-(prop-1-en-2-yl)icosahydro-1H-cyclopenta[a]chrysen-9-yl)oxy)carbonyl)-2,2-dimethylcyclobutane-1-carboxylic acid], in series [1], the AUC(0-t) was 398 µg·h/mL and the Cmax was found to be 14.8 µg/mL. The IC50 in series [2] is 1.67 nM.
`C=C(C)[C@@H]1CC[C@]2(C(=O)N3C[C@H](OCCOC)C[C@H]3c3nc(-c4ccccc4)c[nH]3)CC[C@]3(C)[C@H](CC[C@@H]4[C@@]5(C)CC[C@H](OC(=O)[C@H]6C[C@@H](C(=O)O)C6(C)C)C(C)(C)[C@@H]5CC[C@]43C)[C@@H]12` [Compound 7, (1R,3S)-3-((((1R,3aS,5aR,5bR,7aR,9S,11aR,11b,13aR,13bR)-3a-((2S,4R)-4-(2-methoxyethoxy)-2-(4-phenyl-1H-imidazol-2-yl)pyrrolidine-1-carbonyl)-5a,5b,8,8,11a-pentamethyl-1-(prop-1-en-2-yl)icosahydro-1H-cyclopenta[a]chrysen-9-yl)oxy)carbonyl)-2,2-dimethylcyclobutane-1-carboxylic acid]: in series [1], the AUC(0-t) was found to be 342 µg·h/mL and the Cmax was 12.8 µg/mL. In series [2], the IC50 is 5.5 nM.
Take `C=C(C)[C@@H]1CC[C@]2(C(=O)N3C[C@H](OCCOC)C[C@H]3c3nc(-c4cccc(F)c4)c[nH]3)CC[C@]3(C)[C@H](CC[C@@H]4[C@@]5(C)CC[C@H](OC(=O)[C@H]6C[C@@H](C(=O)O)C6(C)C)C(C)(C)[C@@H]5CC[C@]43C)[C@@H]12` [Compound 8, (11R,3S)-3-((((1R,3aS,5aR,5bR,7aR,9S,11aR,11bR,13aR,13bR)-3a-((2S,4R)-2-(4-(3-fluorophenyl)-1H-imidazol-2-yl)-4-(2-methoxyethoxy)pyrrolidine-1-carbonyl)-5a,5b,8,8,11a-pentamethyl-1-(prop-1-en-2-yl)icosahydro-1H-cyclopenta[a]chrysen-9-yl)oxy)carbonyl)-2,2-dimethylcyclobutane-1-carboxylic acid]: in series [1], the AUC(0-t) came to 1240 µg·h/mL and the Cmax came to 41.3 µg/mL. Besides, the IC50 in series [2] is 61.1 nM.
`C=C(C)[C@@H]1CC[C@]2(C(=O)N3C[C@H](OCCOC)C[C@H]3c3nc(-c4ccc(F)cc4)c[nH]3)CC[C@]3(C)[C@H](CC[C@@H]4[C@@]5(C)CC[C@H](OC(=O)[C@H]6C[C@@H](C(=O)O)C6(C)C)C(C)(C)[C@@H]5CC[C@]43C)[C@@H]12` [Compound 9, (1R,3S)-3-((((1R,3aS,5aR,5bR,7aR,9S,11aR,11bR,13aR,13bR)-3a-((2S,4R)-2-(4-(4-fluorophenyl)-1H-imidazol-2-yl)-4-(2-methoxyethoxy)pyrrolidine-1-carbonyl)-5a,5b,8,8,11a-pentamethyl-1-(prop-1-en-2-yl)icosahydro-1H-cyclopenta[a]chrysen-9-yl)oxy)carbonyl)-2,2-dimethylcyclobutane-1-carboxylic acid]: the IC50 in series [2] is 5.52 nM.
Consider `C=C(C)[C@@H]1CC[C@]2(C(=O)N3CCC[C@H]3c3nc(-c4ccccc4)c(C)[nH]3)CC[C@]3(C)[C@H](CC[C@@H]4[C@@]5(C)CC[C@H](OC(=O)[C@H]6C[C@@H](C(=O)O)C6(C)C)C(C)(C)[C@@H]5CC[C@]43C)[C@@H]12` [Compound 13, (1R,3S)-2,2-dimethyl-3-((((1R,3aS,5aR,5bR,7aR,9S,11aR,11bR,13aR,13bR)-5a,5b,8,8,11a-pentamethyl-3a-((S)-2-(5-methyl-4-phenyl-1H-imidazol-2-yl)pyrrolidine-1-carbonyl)-1-(prop-1-en-2-yl)icosahydro-1H-cyclopenta[a]chrysen-9-yl)oxy)carbonyl)cyclobutane-1-carboxylic acid], for which, in series [2], the IC50 is 4.9 nM.
The same measure, in the same setting: the value for `C=C(C)[C@@H]1CC[C@]2(C(=O)N3CCC[C@H](c4ncc(-c5ccccc5)[nH]4)C3)CC[C@]3(C)[C@H](CC[C@@H]4[C@@]5(C)CC[C@H](OC(=O)[C@H]6C[C@@H](C(=O)O)C6(C)C)C(C)(C)[C@@H]5CC[C@]43C)[C@@H]12` [Compound 20, (1R,3S)-2,2-dimethyl-3-((((1R,3aS,5aR,5bR,7aR,9S,11aR,11bR,13aR,13bR)-5a,5b,8,8,11a-pentamethyl-3a-((S)-3-(5-phenyl-1H-imidazol-2-yl)piperidine-1-carbonyl)-1-(prop-1-en-2-yl)icosahydro-1H-cyclopenta[a]chrysen-9-yl)oxy)carbonyl)cyclobutane-1-carboxylic acid] was 58.4 nM; that for `C=C(C)[C@@H]1CC[C@]2(C(=O)N3CCC[C@H]3c3ncc(-c4ccccc4)[nH]3)CC[C@]3(C)[C@H](CC[C@@H]4[C@@]5(C)CC[C@H](OC(=O)C6C(C(=O)O)C6(C)C)C(C)(C)[C@@H]5CC[C@]43C)[C@@H]12` (stereo partly drawn) [Compound 22, 2,2-di methyl-3-((((1R,3aS,5aR,5bR,7aR,9S,11aR,11bR,13aR,13bR)-5a,5b,8,8,11a-pentamethyl-3a-((S)-2-(5-phenyl-1H-imidazol-2-yl)pyrrolidine-1-carbonyl)-1-(prop-1-en-2-yl)-icosahydro-1H-cyclopenta[a]chrysen-9-yl)oxy)carbonyl)cyclopropane-1-carboxylic acid] was 1000 nM.
For the compound `C=C(C)[C@@H]1CC[C@]2(C(=O)N3C[C@H](OC(C)C)C[C@H]3c3nc(-c4ccccc4)c[nH]3)CC[C@]3(C)[C@H](CC[C@@H]4[C@@]5(C)CC[C@H](OC(=O)[C@H]6C[C@@H](C(=O)O)C6(C)C)C(C)(C)[C@@H]5CC[C@]43C)[C@@H]12` [Compound 30, (1R,3S)-3-((((1R,3aS,5aR,5bR,7aR,9S,11aR,11bR,13aR,13bR)-3a-((2S,4R)-4-isopropoxy-2-(4-phenyl-1H-imidazol-2-yl)pyrrolidine-1-carbonyl)-5a,5b,8,8,11a-pentamethyl-1-(prop-1-en-2-yl)icosahydro-1H-cyclopenta[a]chrysen-9-yl)oxy)carbonyl)-2,2-dimethylcyclobutane-1-carboxylic acid], in series [2], the inhibition at 0.1 µM was 61%, the inhibition at 1 µM is 99% and the IC50 was 89.6 nM.
For the compound `C=C(C)[C@@H]1CC[C@]2(C(=O)N3C[C@H](OCCOC)C[C@H]3c3nc(-c4cccc(F)c4)c[nH]3)CC[C@]3(C)[C@H](CC[C@@H]4[C@@]5(C)CC[C@H](OC(=O)CC(C)(C)C(=O)O)C(C)(C)[C@@H]5CC[C@]43C)[C@@H]12` [Compound 44, 4-(((1R,3aS,5aR,5bR,7aR,9S,11aR,1bR,13aR,13bR)-3a-((2S,4R)-2-(4-(3-fluorophenyl)-1H-imidazol-2-yl)-4-(2-methoxyethoxy)pyrrolidine-1-carbonyl)-5a,5b,8,8,11a-pentamethyl-1-(prop-1-en-2-yl)icosahydro-1H-cyclopenta[a]chrysen-9-yl)oxy)-2,2-dimethyl-4-oxo butanoic acid], the IC50 in series [2] is 27.6 nM.
As to `CC1([C@@H]2CC[C@]3(C(=O)N4CCC[C@H]4c4nc5ccccc5[nH]4)CC[C@]4(C)[C@H](CC[C@@H]5[C@@]6(C)CC[C@H](OC(=O)[C@H]7C[C@@H](C(=O)O)C7(C)C)C(C)(C)[C@@H]6CC[C@]54C)[C@@H]23)CC1` [Compound 61, (1R,3S)-3-((((1R,3aS,5aR,5bR,7aR,9S,11aR,11bR,13aR,13bR)-3a-((S)-2-(1H-benzo[d]imidazol-2-yl)pyrrolidine-1-carbonyl)-5a,5b,8,8,11a-pentamethyl-1-(1-methylcyclopropyl)icosahydro-1H-cyclopenta[a]chrysen-9-yl)oxy)carbonyl)-2,2-dimethylcyclobutane-1-carboxylic acid], in series [2], the inhibition at 0.1 µM is 100%, the inhibition at 1 µM is 100% and the IC50 is 56.9 nM.

The term IC50 denotes the midpoint of a concentration-inhibition curve. As a reminder, the inhibition is how much of the control response was suppressed.

(Values after patent US20170129916A1, “NOVEL BETULINIC PROLINE IMIDAZOLE DERIVATIVES AS HIV INHIBITORS” (HETERO RESEARCH FOUNDATION, priority 2014, published 2017).)
